Experimental data published in the supplement of paper PMC10307832.

How the values were obtained:
Test in all cases: relative viability (nuclei count vs DMSO), 5 days (fraction); higher = more cells survive
Gemcitabine + Phenformin = compound: Nc1ccn([C@@H]2O[C@H](CO)[C@@H](O)C2(F)F)c(=O)n1 [Gemcitabine] + N=C(N)NC(=N)NCCc1ccccc1 [Phenformin] (partner 250 µM)
In short: (§1)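 For relative viability, nuclei counts in treated wells were divided by those in vehicle wells. Lung cancer cell lines had been pin-tool dosed in 1536-well plates the day after seeding and cultured for 5 days, then fixed and stained in one step (final 0.05% Triton X-100, 1% formaldehyde, 1 ug/ml Hoechst) and imaged at 4×. Doses were one drug alone or a fixed anchor-drug dose plus five library-drug doses (not always all listed) in √10 steps, and values are duplicate-plate medians.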

Gemcitabine + Pictilisib = compound: Nc1ccn([C@@H]2O[C@H](CO)[C@@H](O)C2(F)F)c(=O)n1 [Gemcitabine] + CS(=O)(=O)N1CCN(Cc2cc3nc(-c4cccc5[nH]ncc45)nc(N4CCOCC4)c3s2)CC1 [Pictilisib] (partner 1 µM)
In short: as §1

[1] = compound: Nc1ccn([C@@H]2O[C@H](CO)[C@@H](O)C2(F)F)c(=O)n1 [Gemcitabine] + CC(=O)c1c(C)c2cnc(Nc3ccc(N4CCNCC4)cn3)nc2n(C2CCCC2)c1=O [Palbociclib] (partner 0.5 µM)
In short: as §1

Gemcitabine + Decitabine = compound: Nc1ccn([C@@H]2O[C@H](CO)[C@@H](O)C2(F)F)c(=O)n1 [Gemcitabine] + Nc1ncn([C@H]2C[C@H](O)[C@@H](CO)O2)c(=O)n1 [Decitabine] (partner 2 µM)
In short: as §1

Row | Cell Line | relative viability (Gemcitabine + Phenformin; first compound 0.001 µM) | relative viability (Gemcitabine + Phenformin; first compound 0.003162 µM) | relative viability (Gemcitabine + Phenformin; first compound 0.01 µM) | relative viability (Gemcitabine + Phenformin; first compound 0.03162 µM) | relative viability (Gemcitabine + Phenformin; first compound 0.1 µM) | relative viability (Gemcitabine + Pictilisib; first compound 0.001 µM) | relative viability (Gemcitabine + Pictilisib; first compound 0.003162 µM) | relative viability (Gemcitabine + Pictilisib; first compound 0.01 µM) | relative viability (Gemcitabine + Pictilisib; first compound 0.03162 µM) | relative viability (Gemcitabine + Pictilisib; first compound 0.1 µM) | relative viability ([1]; first compound 0.001 µM) | relative viability ([1]; first compound 0.003162 µM) | relative viability ([1]; first compound 0.01 µM) | relative viability ([1]; first compound 0.03162 µM) | relative viability ([1]; first compound 0.1 µM) | relative viability (Gemcitabine + Decitabine; first compound 0.001 µM) | relative viability (Gemcitabine + Decitabine; first compound 0.003162 µM) | relative viability (Gemcitabine + Decitabine; first compound 0.01 µM) | relative viability (Gemcitabine + Decitabine; first compound 0.03162 µM) | relative viability (Gemcitabine + Decitabine; first compound 0.1 µM)
1 | LCLC-103H | 0.321 | 0.318 | 0.279 | 0.198 | 0.193 | 0.579 | 0.641 | 0.659 | 0.627 | 0.417 | 0.491 | 0.504 | 0.497 | 0.42 | 0.406 | 0.694 | 0.738 | 0.715 | 0.674 | 0.57
2 | NCI-H441 | 0.808 | 0.552 | 0.269 | 0.204 | 0.176 | 0.521 | 0.343 | 0.196 | 0.109 | 0.126 | 0.242 | 0.163 | 0.178 | 0.13 | 0.123 | 0.208 | 0.212 | 0.17 | 0.167 | 0.127
3 | SK-LU-1 | 0.578 | 0.272 | 0.154 | 0.115 | 0.124 | 0.6 | 0.537 | 0.213 | 0.172 | 0.192 | 0.386 | 0.312 | 0.283 | 0.184 | 0.221 | 0.623 | 0.635 | 0.376 | 0.24 | 0.246
4 | BEN | 0.262 | 0.23 | 0.243 | 0.222 | 0.202 | 0.547 | 0.477 | 0.258 | 0.128 | 0.119 | 0.448 | 0.38 | 0.364 | 0.291 | 0.273 | 0.698 | 0.456 | 0.413 | 0.249 | 0.257
5 | LC-2-ad | 0.569 | 0.347 | 0.339 | 0.212 | 0.161 | 0.517 | 0.726 | 0.242 | 0.129 | 0.105 | 0.509 | 0.555 | 0.424 | 0.496 | 0.317 | 0.797 | 0.863 | 0.729 | 0.658 | 0.469
6 | COR-L23 | 0.432 | 0.368 | 0.193 | 0.1 | 0.0829 | 0.686 | 0.942 | 0.39 | 0.148 | 0.0795 | 0.277 | 0.214 | 0.119 | 0.112 | 0.0964 | 0.423 | 0.463 | 0.443 | 0.217 | 0.146
7 | NCI-H1650 | 0.437 | 0.202 | 0.154 | 0.129 | 0.121 | 0.524 | 0.466 | 0.267 | 0.181 | 0.144 | 0.339 | 0.308 | 0.261 | 0.186 | 0.127 | 0.467 | 0.369 | 0.239 | 0.222 | 0.155
8 | RERF-LC-KJ | 0.454 | 0.455 | 0.404 | 0.285 | 0.26 | 0.775 | 0.458 | 0.408 | 0.304 | 0.168 | 1.06 | 1.02 | 0.991 | 0.356 | 0.255 | 0.831 | 0.701 | 0.636 | 0.529 | 0.324
9 | NCI-H1915 | 0.353 | 0.356 | 0.344 | 0.279 | 0.214 | 1.02 | 0.949 | 0.909 | 0.857 | 0.229 | 0.522 | 0.532 | 0.508 | 0.425 | 0.22 | 0.255 | 0.262 | 0.254 | 0.258 | 0.182
10 | NCI-H2009 | 0.496 | 0.317 | 0.198 | 0.175 | 0.146 | 0.872 | 0.419 | 0.157 | 0.128 | 0.101 | 0.216 | 0.203 | 0.193 | 0.132 | 0.0838 | 0.363 | 0.264 | 0.233 | 0.141 | 0.114
11 | NCI-H2126 | 0.504 | 0.422 | 0.399 | 0.358 | 0.216 | 0.474 | 0.485 | 0.479 | 0.349 | 0.278 | 0.323 | 0.367 | 0.312 | 0.29 | 0.281 | 0.604 | 0.546 | 0.546 | 0.423 | 0.299
12 | LXF-289 | 0.517 | 0.445 | 0.263 | 0.0911 | 0.0812 | 0.761 | 0.758 | 0.592 | 0.275 | 0.11 | 0.606 | 0.604 | 0.428 | 0.127 | 0.14 | 0.396 | 0.372 | 0.321 | 0.222 | 0.151
13 | HCC-44 | 0.156 | 0.139 | 0.101 | 0.098 | 0.102 | 0.58 | 0.568 | 0.593 | 0.392 | 0.234 | 0.934 | 0.908 | 0.938 | 0.717 | 0.447 | 0.936 | 0.918 | 0.901 | 0.845 | 0.738
14 | PC-14 | 0.558 | 0.113 | 0.0527 | 0.0312 | 0.0491 | 0.684 | 0.435 | 0.139 | 0.036 | 0.0292 | 0.547 | 0.2 | 0.0649 | 0.0528 | 0.0391 | 0.217 | 0.0953 | 0.0507 | 0.0388 | 0.0405
15 | HOP-62 | 0.67 | 0.492 | 0.239 | 0.0719 | 0.0597 | 0.78 | 0.464 | 0.315 | 0.0682 | 0.0859 | 0.358 | 0.339 | 0.184 | 0.0959 | 0.0958 | 0.253 | 0.172 | 0.16 | 0.0888 | 0.121
16 | NCI-H358 | 0.291 | 0.22 | 0.101 | 0.0745 | 0.0748 | 0.338 | 0.27 | 0.188 | 0.194 | 0.161 | 0.124 | 0.0834 | 0.0975 | 0.0732 | 0.08 | 0.188 | 0.171 | 0.151 | 0.102 | 0.105
